Measurements taken from ChEMBL document CHEMBL3808348, “Rational Design, Synthesis, and Biological Evaluation of 7-Azaindole Derivatives as Potent Focused Multi-Targeted Kinase Inhibitors” (J Med Chem, 2016).

Experiments:
[1] = biological target: T1, Tyrosine-protein kinase Lck (Homo sapiens, UniProt P06239); test: Inhibition of His-tagged full length human recombinant LCK expressed in baculovirus using Fluorescein-Poly GT as substrate
Target sequence in this assay (P06239 whole entry, the tested form may be a part): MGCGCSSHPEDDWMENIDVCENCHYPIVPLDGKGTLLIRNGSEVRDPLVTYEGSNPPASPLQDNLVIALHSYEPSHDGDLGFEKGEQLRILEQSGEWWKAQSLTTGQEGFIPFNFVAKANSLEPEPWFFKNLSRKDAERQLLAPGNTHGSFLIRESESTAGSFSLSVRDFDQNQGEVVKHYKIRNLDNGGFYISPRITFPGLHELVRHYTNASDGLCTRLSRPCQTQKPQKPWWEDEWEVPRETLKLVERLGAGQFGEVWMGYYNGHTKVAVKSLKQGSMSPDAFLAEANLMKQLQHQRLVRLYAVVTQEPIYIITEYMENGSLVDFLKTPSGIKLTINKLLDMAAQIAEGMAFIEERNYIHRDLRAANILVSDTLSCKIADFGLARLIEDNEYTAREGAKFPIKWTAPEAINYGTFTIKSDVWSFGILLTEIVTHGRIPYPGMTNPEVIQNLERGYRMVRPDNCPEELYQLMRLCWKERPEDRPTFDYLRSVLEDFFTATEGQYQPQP

[2] = biological target: Epidermal growth factor receptor (Homo sapiens, UniProt P00533, T790M); test: Inhibition of GST-tagged human recombinant EGFR T790M mutant (668 to 1210 residues) expressed in baculovirus using Fluorescein-Poly GT as substrate
[3] = biological target: Bcr/Abl fusion protein (Homo sapiens, UniProt P00519, T315I); assay type: cell-based, BaF3
Description: Inhibition of human BCR-ABL T315I mutant expressed in mouse BAF3 cells assessed as inhibition of cell proliferation after 72 hrs by MTT assay

[4] = Tmax in Swiss mouse plasma at 20 mg/kg, po by LC/MS/MS analysis; assay type: ADME, organism-based
[5] = biological target: Tyrosine-protein kinase Blk (Homo sapiens) (UniProt P51451); test: Inhibition of His-tagged full length human recombinant BLK expressed in baculovirus using Fluorescein-Poly GT as substrate at 100 nM
[6] = biological target: Cytoplasmic tyrosine-protein kinase BMX (Homo sapiens) (UniProt P51813); test: Inhibition of His-tagged full length human recombinant BMX expressed in baculovirus using Fluorescein-Poly GT as substrate at 100 nM
[7] = biological target: Tyrosine-protein kinase Fgr (Homo sapiens) (UniProt P09769); test: Inhibition of His-tagged full length human recombinant FGR expressed in baculovirus using Fluorescein-Poly GT as substrate at 100 nM
[8] = biological target: T1, Tyrosine-protein kinase Lck; test: Inhibition of His-tagged full length human recombinant LCK expressed in baculovirus using Fluorescein-Poly GT as substrate at 100 nM
[9] = biological target: Tyrosine-protein kinase Yes (Homo sapiens, UniProt P07947); test: Inhibition of GST-tagged full length human recombinant YES expressed in baculovirus using Fluorescein-Poly GT as substrate at 100 nM
[10] = biological target: Tyrosine-protein kinase HCK (Homo sapiens, UniProt P08631); test: Inhibition of GST-tagged full length human recombinant HCK expressed in baculovirus using Fluorescein-Poly GT as substrate
[11] = biological target: T2, Proto-oncogene tyrosine-protein kinase Src (Homo sapiens, UniProt P12931); test: Inhibition of full length His-tagged human recombinant cSRC expressed in baculovirus using Fluorescein-Poly GT as substrate
[12] = biological target: Platelet-derived growth factor receptor alpha (Homo sapiens, UniProt P16234); test: Inhibition of full length GST-tagged human recombinant PDGFRalpha expressed in baculovirus using Fluorescein-Poly GT as substrate
[13] = biological target: Serine/threonine-protein kinase B-raf (Homo sapiens) (UniProt P15056); test: Inhibition of full length GST-tagged human recombinant BRAF expressed in baculovirus using Fluorescein-MAP2K1 as substrate at 100 nM
[14] = biological target: Epidermal growth factor receptor (Homo sapiens, UniProt P00533); test: Inhibition of GST-tagged human recombinant EGFR (668 to1210 residues) expressed in baculovirus using Fluorescein-Poly GT as substrate at 100 nM
[15] = biological target: T2, Proto-oncogene tyrosine-protein kinase Src; test: Inhibition of full length His-tagged human recombinant cSRC expressed in baculovirus using Fluorescein-Poly GT as substrate at 100 nM
[16] = test system: HepG2; test: Antiproliferative activity against human HepG2 cells after 72 hrs by MTT assay; assay type: functional, cell-based; conditions: HepG2, 72 h
[17] = biological target: AMP-activated protein kinase, AMPK (Homo sapiens) (UniProt P54646+O43741+P54619+Q9UGJ0+Q9Y478+Q13131+Q9UGI9); conditions: 100 nM
Description: Inhibition of full length human recombinant AMPK expressed in baculovirus expression system using Fluorescein-CREBtide as substrate at 100 nM

[18] = biological target: Leukocyte tyrosine kinase receptor (Homo sapiens) (UniProt P29376); conditions: 100 nM
Description: Inhibition of GST-tagged human recombinant TYK1 (450 to 864 residues) expressed in baculovirus using Fluorescein-Poly GT as substrate at 100 nM

[19] = biological target: Protein kinase C delta type (Homo sapiens) (UniProt Q05655); conditions: 100 nM
Description: Inhibition of full length human recombinant PKCdelta expressed in baculovirus using Fluorescein-PKC as substrate at 100 nM

[20] = biological target: Protein kinase C gamma type (Homo sapiens) (UniProt P05129); conditions: 100 nM
Description: Inhibition of full length human recombinant PKCgamma expressed in baculovirus using Fluorescein-PKC as substrate at 100 nM

[21] = biological target: Rho-associated protein kinase 2 (Homo sapiens) (UniProt O75116); conditions: 100 nM
Description: Inhibition of GST-tagged human recombinant ROCK2 ( 1 to 552 residues) expressed in baculovirus using Fluorescein-PKC as substrate at 100 nM

[22] = biological target: Proto-oncogene tyrosine-protein kinase ROS (Homo sapiens) (UniProt P08922); conditions: 100 nM
Description: Inhibition of GST-tagged human recombinant ROS1 (1883 to 2347 residues) expressed in baculovirus using Fluorescein-Poly GT as substrate at 100 nM

[23] = biological target: Tyrosine-protein kinase ABL2 (Homo sapiens) (UniProt P42684); conditions: 100 nM
Description: Inhibition of His-tagged full length human recombinant ARG expressed in baculovirus using Fluorescein-Poly GT as substrate at 100 nM

[24] = biological target: Ephrin type-A receptor 1 (Homo sapiens) (UniProt P21709); conditions: 100 nM
Description: Inhibition of GST-tagged human recombinant EPHA1 (568 to 976 residues) expressed in baculovirus using Fluorescein-Poly GT as substrate at 100 nM

[25] = biological target: Receptor tyrosine-protein kinase erbB-4 (Homo sapiens) (UniProt Q15303); conditions: 100 nM
Description: Inhibition of GST-tagged human recombinant ERBB4 (708 to 993 residues) expressed in baculovirus using Fluorescein-Poly GT as substrate at 100 nM

[26] = biological target: Aurora kinase A (Homo sapiens) (UniProt O14965); conditions: 100 nM
Description: Inhibition of full length His-tagged human recombinant Aurora A expressed in baculovirus using Fluorescein-CREBtide as substrate at 100 nM

[27] = biological target: Aurora kinase B (Homo sapiens) (UniProt Q96GD4); conditions: 100 nM
Description: Inhibition of full length His-tagged human recombinant Aurora B expressed in baculovirus using Fluorescein-CREBtide as substrate at 100 nM

[28] = biological target: Tyrosine-protein kinase receptor UFO (Homo sapiens) (UniProt P30530); conditions: 100 nM
Description: Inhibition of full length His-tagged human recombinant AXL expressed in insect expression system using Fluorescein-Poly GT as substrate at 100 nM

[29] = biological target: Serine/threonine-protein kinase Chk2 (Homo sapiens) (UniProt O96017); conditions: 100 nM
Description: Inhibition of His-tagged human recombinant CHK2 expressed in baculovirus using Fluorescein-CREBtide as substrate at 100 nM

[30] = biological target: CDK7/Cyclin H/MNAT1 (Homo sapiens) (UniProt P51946+P50613+P51948); conditions: 100 nM
Description: Inhibition of CDK7/cyclinH/MNAT1 (unknown origin) at 100 nM

[31] = biological target: CDK9/cyclin T1 (Homo sapiens) (UniProt O60563+P50750); conditions: 100 nM
Description: Inhibition of CDK9/cyclinT1 (unknown origin) at 100 nM

[32] = species: Homo sapiens; conditions: 100 nM
Description: Inhibition of CK1 (unknown origin) at 100 nM

[33] = biological target: Focal adhesion kinase 1 (Homo sapiens) (UniProt Q05397); conditions: 100 nM
Description: Inhibition of full length GST-tagged human recombinant FAK expressed in baculovirus using Fluorescein-Poly GT as substrate at 100 nM

[34] = biological target: Insulin receptor-related protein (Homo sapiens) (UniProt P14616); conditions: 100 nM
Description: Inhibition of GST-tagged human recombinant INSRR (944 to 1297 residues) expressed in baculovirus using Fluorescein-Poly GT as substrate at 100 nM

[35] = biological target: Dual specificity mitogen-activated protein kinase kinase 1 (Homo sapiens) (UniProt Q02750); conditions: 100 nM
Description: Inhibition of full length His-tagged human recombinant MEK1 expressed in baculovirus expression system at 100 nM

[36] = biological target: Mitogen-activated protein kinase 1 (Homo sapiens) (UniProt P28482); conditions: 100 nM
Description: Inhibition of GST-tagged full length human recombinant ERK2 expressed in Escherichia coli using GFP-AT F2 as substrate at 100 nM

[37] = biological target: Myosin light chain kinase, smooth muscle (Homo sapiens) (UniProt Q15746); conditions: 100 nM
Description: Inhibition of GST-tagged human recombinant MLCK (1428 to 1771 residues) expressed in baculovirus at 100 nM

[38] = biological target: Platelet-derived growth factor receptor beta (Homo sapiens) (UniProt P09619); conditions: 100 nM
Description: Inhibition of His-tagged human recombinant PDGFRbeta (558 to 1106 residues) expressed in baculovirus using Fluorescein-Poly GT as substrate at 100 nM

[39] = biological target: Phosphatidylinositol 4,5-bisphosphate 3-kinase catalytic subunit alpha isoform (Homo sapiens) (UniProt P42336); conditions: 100 nM
Description: Inhibition of PI3Kalpha (unknown origin) at 100 nM

[40] = biological target: Serine/threonine-protein kinase pim-1 (Homo sapiens) (UniProt P11309); conditions: 100 nM
Description: Inhibition of His-tagged full length human recombinant PIM1 expressed in baculovirus using Fluorescein-CREBtide as substrate at 100 nM

[41] = biological target: cAMP-dependent protein kinase catalytic subunit alpha (Homo sapiens) (UniProt P17612); conditions: 100 nM
Description: Inhibition of His-tagged human recombinant PKA C-alpha (1 to 351 residues) expressed in Escherichia coli using Fluorescein-Crosstide as substrate at 100 nM

T2 sequence (P12931 2-536 limits assumed): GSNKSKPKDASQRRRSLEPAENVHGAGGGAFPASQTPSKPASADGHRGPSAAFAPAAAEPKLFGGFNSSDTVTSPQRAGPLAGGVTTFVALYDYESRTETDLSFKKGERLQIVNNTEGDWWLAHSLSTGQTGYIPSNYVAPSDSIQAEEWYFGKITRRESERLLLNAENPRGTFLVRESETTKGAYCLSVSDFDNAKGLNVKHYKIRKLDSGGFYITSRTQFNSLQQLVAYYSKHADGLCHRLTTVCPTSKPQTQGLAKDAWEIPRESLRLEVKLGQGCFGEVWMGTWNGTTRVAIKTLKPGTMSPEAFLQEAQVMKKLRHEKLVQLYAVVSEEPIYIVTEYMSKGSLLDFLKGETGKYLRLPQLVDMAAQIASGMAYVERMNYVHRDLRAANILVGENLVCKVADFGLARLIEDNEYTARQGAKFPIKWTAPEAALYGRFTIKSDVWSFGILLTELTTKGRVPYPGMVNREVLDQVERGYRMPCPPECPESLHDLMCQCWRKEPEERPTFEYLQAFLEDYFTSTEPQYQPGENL
Platelet-derived growth factor receptor beta (Homo sapiens), sequence (P09619 whole entry, canonical isoform): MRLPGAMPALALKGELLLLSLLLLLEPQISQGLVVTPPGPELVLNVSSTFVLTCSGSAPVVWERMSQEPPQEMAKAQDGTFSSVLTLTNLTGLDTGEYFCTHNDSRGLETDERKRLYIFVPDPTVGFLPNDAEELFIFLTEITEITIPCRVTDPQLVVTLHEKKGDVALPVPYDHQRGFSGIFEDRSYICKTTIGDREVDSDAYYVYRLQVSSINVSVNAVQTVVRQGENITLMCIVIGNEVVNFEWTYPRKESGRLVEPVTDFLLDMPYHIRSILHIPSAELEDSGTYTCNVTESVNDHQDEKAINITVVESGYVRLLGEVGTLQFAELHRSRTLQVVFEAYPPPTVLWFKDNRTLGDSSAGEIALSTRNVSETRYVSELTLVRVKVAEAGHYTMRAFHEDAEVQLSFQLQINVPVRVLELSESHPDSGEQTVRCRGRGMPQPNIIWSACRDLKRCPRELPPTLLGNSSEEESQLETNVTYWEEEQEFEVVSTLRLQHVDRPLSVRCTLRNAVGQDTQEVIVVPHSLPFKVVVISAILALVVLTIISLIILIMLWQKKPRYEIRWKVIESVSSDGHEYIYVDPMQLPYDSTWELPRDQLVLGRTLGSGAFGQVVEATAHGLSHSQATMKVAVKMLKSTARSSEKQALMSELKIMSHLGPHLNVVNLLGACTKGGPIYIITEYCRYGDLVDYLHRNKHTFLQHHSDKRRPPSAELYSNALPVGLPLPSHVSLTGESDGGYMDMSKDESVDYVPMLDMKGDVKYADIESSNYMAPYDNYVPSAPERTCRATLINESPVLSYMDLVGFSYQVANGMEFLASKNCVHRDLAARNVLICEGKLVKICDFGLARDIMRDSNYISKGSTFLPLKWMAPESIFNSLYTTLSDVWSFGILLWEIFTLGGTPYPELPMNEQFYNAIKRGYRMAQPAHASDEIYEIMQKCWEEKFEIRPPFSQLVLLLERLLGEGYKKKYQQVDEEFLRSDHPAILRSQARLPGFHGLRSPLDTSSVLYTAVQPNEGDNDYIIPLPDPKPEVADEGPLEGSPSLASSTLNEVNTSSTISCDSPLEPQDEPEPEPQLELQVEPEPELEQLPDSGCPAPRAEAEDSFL
Proto-oncogene tyrosine-protein kinase ROS (Homo sapiens), sequence (P08922 whole entry): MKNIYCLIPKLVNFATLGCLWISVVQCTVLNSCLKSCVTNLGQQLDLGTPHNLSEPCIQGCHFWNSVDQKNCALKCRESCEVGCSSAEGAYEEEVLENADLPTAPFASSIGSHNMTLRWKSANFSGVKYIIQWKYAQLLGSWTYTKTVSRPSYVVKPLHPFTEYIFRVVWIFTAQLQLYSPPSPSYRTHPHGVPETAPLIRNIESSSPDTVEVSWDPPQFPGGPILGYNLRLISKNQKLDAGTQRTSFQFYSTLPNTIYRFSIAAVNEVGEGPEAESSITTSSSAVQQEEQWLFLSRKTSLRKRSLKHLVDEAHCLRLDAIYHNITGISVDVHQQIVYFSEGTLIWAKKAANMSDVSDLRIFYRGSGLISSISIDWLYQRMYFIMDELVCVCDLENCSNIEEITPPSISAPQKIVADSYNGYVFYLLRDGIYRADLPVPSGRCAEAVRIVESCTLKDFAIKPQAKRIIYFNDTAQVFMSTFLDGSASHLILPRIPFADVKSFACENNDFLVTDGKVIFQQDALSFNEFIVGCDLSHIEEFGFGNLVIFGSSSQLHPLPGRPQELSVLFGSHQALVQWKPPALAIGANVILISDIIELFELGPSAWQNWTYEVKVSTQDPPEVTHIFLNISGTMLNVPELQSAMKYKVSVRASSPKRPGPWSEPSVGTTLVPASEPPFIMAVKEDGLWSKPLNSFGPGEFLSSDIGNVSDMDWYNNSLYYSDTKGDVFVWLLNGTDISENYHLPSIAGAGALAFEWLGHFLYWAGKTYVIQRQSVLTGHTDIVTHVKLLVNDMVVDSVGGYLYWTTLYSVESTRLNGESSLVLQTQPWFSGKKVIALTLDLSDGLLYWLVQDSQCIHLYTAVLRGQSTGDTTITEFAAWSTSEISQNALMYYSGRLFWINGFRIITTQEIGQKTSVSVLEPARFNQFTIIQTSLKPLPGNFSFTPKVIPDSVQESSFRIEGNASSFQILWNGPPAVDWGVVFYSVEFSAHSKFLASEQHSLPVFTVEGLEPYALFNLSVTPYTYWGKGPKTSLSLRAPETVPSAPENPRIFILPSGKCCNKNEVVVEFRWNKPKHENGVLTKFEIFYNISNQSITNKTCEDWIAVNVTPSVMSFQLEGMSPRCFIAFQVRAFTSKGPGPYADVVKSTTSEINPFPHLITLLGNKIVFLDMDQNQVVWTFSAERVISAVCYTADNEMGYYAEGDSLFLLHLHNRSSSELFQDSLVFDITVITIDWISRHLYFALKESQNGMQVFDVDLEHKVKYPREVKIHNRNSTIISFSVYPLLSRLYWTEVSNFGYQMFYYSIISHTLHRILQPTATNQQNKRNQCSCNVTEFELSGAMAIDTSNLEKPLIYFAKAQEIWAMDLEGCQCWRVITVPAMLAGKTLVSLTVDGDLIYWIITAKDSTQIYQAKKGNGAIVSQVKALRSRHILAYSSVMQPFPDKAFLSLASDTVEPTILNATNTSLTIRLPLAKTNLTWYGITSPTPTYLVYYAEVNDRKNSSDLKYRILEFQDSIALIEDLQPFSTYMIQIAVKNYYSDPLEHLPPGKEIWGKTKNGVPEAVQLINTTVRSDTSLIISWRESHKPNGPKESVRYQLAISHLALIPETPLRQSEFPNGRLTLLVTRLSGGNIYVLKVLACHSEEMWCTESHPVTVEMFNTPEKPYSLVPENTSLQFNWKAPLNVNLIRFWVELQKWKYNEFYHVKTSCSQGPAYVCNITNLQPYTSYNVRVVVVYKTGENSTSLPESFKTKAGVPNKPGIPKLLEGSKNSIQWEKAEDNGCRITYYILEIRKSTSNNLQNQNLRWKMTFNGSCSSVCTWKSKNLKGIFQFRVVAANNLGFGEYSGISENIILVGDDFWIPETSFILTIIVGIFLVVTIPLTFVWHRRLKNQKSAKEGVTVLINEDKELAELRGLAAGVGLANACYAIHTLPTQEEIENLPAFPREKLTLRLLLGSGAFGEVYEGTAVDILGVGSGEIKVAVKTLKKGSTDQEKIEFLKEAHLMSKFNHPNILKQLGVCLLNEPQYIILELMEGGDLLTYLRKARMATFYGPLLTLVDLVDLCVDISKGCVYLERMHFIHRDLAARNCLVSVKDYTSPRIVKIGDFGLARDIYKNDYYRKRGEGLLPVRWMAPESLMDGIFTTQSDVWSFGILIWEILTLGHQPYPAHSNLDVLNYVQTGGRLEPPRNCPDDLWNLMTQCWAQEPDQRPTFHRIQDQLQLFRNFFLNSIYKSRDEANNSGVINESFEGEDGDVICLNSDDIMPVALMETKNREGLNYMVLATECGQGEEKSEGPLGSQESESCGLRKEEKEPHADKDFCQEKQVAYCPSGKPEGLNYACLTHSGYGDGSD
Serine/threonine-protein kinase pim-1 (Homo sapiens), sequence (P11309 whole entry, looked up): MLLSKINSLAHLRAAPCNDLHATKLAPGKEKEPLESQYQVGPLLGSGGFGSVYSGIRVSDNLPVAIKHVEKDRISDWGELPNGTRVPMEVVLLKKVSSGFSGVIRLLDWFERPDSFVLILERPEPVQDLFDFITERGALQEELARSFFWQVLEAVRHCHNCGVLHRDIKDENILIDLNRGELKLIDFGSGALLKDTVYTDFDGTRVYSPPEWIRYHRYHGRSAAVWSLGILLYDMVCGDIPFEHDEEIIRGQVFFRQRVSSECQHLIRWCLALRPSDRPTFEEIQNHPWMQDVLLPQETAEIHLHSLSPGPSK

COC(=O)c1cc2cc(NCc3cc(NC(=O)c4cc(-n5cnc(C)c5)cc(C(F)(F)F)c4)ccc3C)cnc2[nH]1
IC50 [1]: 69 nM
IC50 [2]: 112 nM
EC50 [3]: 1.8 nM
Tmax [4]: 30 min
inhibition [5]: > 80%
inhibition [6]: > 80%
inhibition [7]: > 80%
inhibition [8]: > 80%
inhibition [9]: > 80%
IC50 [10]: 22 nM
IC50 [11]: 40 nM
IC50 [12]: 50 nM
inhibition [13]: 54%
inhibition [14]: 82%
inhibition [15]: 49%
EC50 [16]: 38 nM
inhibition [17]: < 40%
inhibition [18]: < 40%
inhibition [19]: < 40%
inhibition [20]: < 40%
inhibition [21]: < 40%
inhibition [22]: < 40%
inhibition [23]: < 40%
inhibition [24]: < 40%
inhibition [25]: < 40%
inhibition [26]: < 40%
inhibition [27]: < 40%
inhibition [28]: < 40%
inhibition [29]: < 40%
inhibition [30]: < 40%
inhibition [31]: < 40%
inhibition [32]: < 40%
inhibition [33]: < 40%
inhibition [34]: < 40%
inhibition [35]: < 40%
inhibition [36]: < 40%
inhibition [37]: < 40%
inhibition [38]: < 40%
inhibition [39]: < 40%
inhibition [40]: < 40%
inhibition [41]: < 40%
